Reference: US11684594B2, “Antifungal prophylaxis for cornea” (PRESIDENT AND FELLOWS OF HARVARD COLLEGE, priority 2020, dated 2023)
“Also recorded” adds a separate entry of the source. Read-outs that look alike come from different tables or passages of the source.

Columns and labels:
[1] = system: Candida albicans (ATCC 24433), Fusarium solani (ATCC MYA-3636), and Aspergillus fumigatus (ATCC MYA-3626); assay: In vitro antifungal testing, statements not resolved by species; format: cell-based; settings: species not resolved; for Efficacy/toxicity ratio, overall rank: fungicidal activity vs HCLE cytotoxicity; for Antifungal / fungicidal activity in vitro: agents at eye-drop or stated concentration
Description: Several commonly used antibiotics were tested in vitro against Candida albicans (ATCC 24433), Fusarium solani (ATCC MYA-3636), and Aspergillus fumigatus (ATCC MYA-3626). Time kill activity and minimum inhibitory concentrations (MIC) were determined. Also the antiseptics benzalkonium chloride (BAK), povidone-iodine (PI), and ionic liquids (ILs) consisting of a 1:1 mixture of choline and undecanoic acid, were tested. Toxicity was assayed in vitro on cultures of human corneal epithelial cells, subjected to Trypan Blue staining. Adhesion and tissue invasion experiments were also carried out, with or without γ-irradiation, and by analysis with fluorescent microscopy.
(§1) In Vitro Time Kill Tests. Microtiter time kill tests were carried out in vitro according to the published CLSI methods (M27-A2).^22

[2] = system: human corneal-limbal epithelial cells (HCLE); format: cell-based; settings: for Cytotoxicity / toxicity: HCLE cells, post-exposure Trypan blue staining; for Trypan Blue staining (% stained area per image) compared to control treatment TX-100 (1%): FIG. 2A, confluent HCLE monolayers, 1 min of contact, BAK 40 µg/mL, PI 0.5%, #3-IL 10 mM
Description: In Vitro Toxicity Tests. Trypan Blue assays for toxicity of various antimicrobial agents were conducted using human corneal cells. Telomerase-immortalized human corneal-limbal epithelial cells (HCLE) were thawed at 37° C. and quickly transferred to a sterile T75 cell culture flask. Cells were grown in keratinocyte serum-free medium (KSFM; Gibco™; Thermofisher Scientific; Waltham, Mass.) supplemented with bovine pituitary extract (25 μg/mL), epidermal growth factor (0.2 ng/mL), calcium chloride (0.4 mM CaCl2[…]2H2O; Sigma-Aldrich; St Louis, Mo.), and 1× penicillin/streptomycin, at 37° C. with 5% CO2. Once cells were confluent, they were passaged following trypsinization in 12- or 24-well plates. After incubation with Trypsin-EDTA (0.05%, Gibco™; Thermofisher Scientific; Waltham, Mass.) for 5-10 min at 37° C. with 5% CO2, the reaction was stopped with an equivalent volume of neutralizing medium (Dulbecco's Modified Eagle Medium/Nutrient Mixture F-12, DMEM/F-12, with HEPES and 10% newborn calf serum), centrifuged at 5,000×g for 5 min, and re-suspended in supplemented KSFM. Experiments were performed using cells from passages 31 to 36. Once cells reached confluency, they were gently washed twice with DMEM/F-12 (Gibco™; Thermofisher Scientific; Waltham, Mass.) and incubated with an antimicrobial agent for 1 min (n=2 wells per group). Controls included 1×PBS (diluent) and 1% TX-100 (cell permeabilizer). After exposure to various agents, the cells were washed three times with DMEM/F-12, incubated with 0.2% Trypan Blue for 5 min, and washed again three times with DMEM/F-12. The remaining media was aspirated and replaced with 1×PBS for imaging. Macro-images of the culture plate were taken with a smartphone camera (iPhone 7; Apple Inc.; Cupertino, Calif.), and 10× images were taken with an inverted microscope (Eclipse TS100; Nikon; Tokyo, Japan) attached to a digital camera (SPOT Insight Fire Wire; Diagnostic Instruments Inc.; Sterling Heights, Mich.). 3-6 images/well were obtained in clockwise direction from areas immediately adjacent to the center of the well, and without overlapping areas. Images were quantified in ImageJ Fiji software to determine the amount of cell uptake of Trypan Blue. Macros were created from the Color Threshoulder plugin (G. Landini) to batch process the images after color matching in Photoshop to reference images per treatment group. % Area of Trypan Blue staining per image was calculated as follows: (area of blue/area of all)×100%.

[3] = system: C. albicans (ATCC 24433); assay: In vitro time kill test, yeast; format: cell-based, Candida albicans; settings: for Reduction in viable colonies: FIG. 1A, full strength; for Ratio fungicidal activity/cytotoxicity: FIG. 3, # of log10 reduction / fold-change in Trypan Blue staining vs PBS (HCLE), 1 min contact, C. albicans
Description: as §1
The inoculum was prepared by adjustment of the optical density at 600 nm (OD600) to 1.0 (corresponding to approximately 1×10^6 CFU/mL), and dilution by 1:10 in the final solution. To confirm the starting inoculum size, yeasts were plated […] and colonies counted after growth for 24 hrs at 37° C. The test solutions were neutralized at each time point by ten-fold dilution in Dey-Engley neutralizing broth (Sigma-Aldrich; St Louis, Mo.), and serially track diluted (PMID: 9343684) on Sabouraud dextrose agar (six serial 1:10 dilutions, 0.01 mL each) in technical triplicate. Colonies were counted and recorded following aerobic incubation for 24 hrs at 37° C.
(§2) To investigate the fungicidal activity of various antibiotics and antimicrobials, the reduction in fungal load after short contact times (0-15 min, FIGS. 2-3), to account for the effect of rapid dilution by the tear film, as occurs in patients after topical instillation, was measured.^23 The detection limit for time kill tests was approximately 100 CFU/mL for C. albicans, and 1 CFU/mL for F. solani and A. fumigatus (corresponding to a ≥3 log difference from the starting inoculum). 20-300 cells were considered a reliable counting range per dilution, and values were averaged when more than one dilution in the same plate were within this range.

[4] = system: A. fumigatus (ATCC MYA-3626); assay: In vitro time kill test, filamentous fungi; format: cell-based, Aspergillus fumigatus; settings: for Ratio fungicidal activity/cytotoxicity: FIG. 3, # of log10 reduction / fold-change in Trypan Blue staining vs PBS (HCLE), 1 min contact, A. fumigatus
Description: as §1
(§3) ii) Filamentous fungi: The antibiotic solutions, at either full or 1/10 strength, and antiseptics were inoculated with approximately 2×10^5-2×10^6 conidia/mL of F. solani or A. fumigatus in RPMI broth (buffered with MOPS at pH 7.0; Mediatech; Manassas, Va.) for 0-15 min. Conidia were collected by flooding the agar plates with 10 mL of sterile 1×PBS and 0.1% Tween® 20 (Sigma Aldrich; St Louis, Mo.). The solution was transferred to a sterile conical tube, and particles were allowed to settle for 10 min. The resulting supernatant was transferred to a new sterile conical tube and centrifuged at 3,000×g for 5 min. The supernatant was discarded, the remaining pellet was re-suspended in RPMI broth (buffered with MOPS at pH 7.0), and the OD600 was adjusted to 1.0. In the final test solutions, at each time point the inoculum was diluted 1:10 and neutralized in Dey-Engley neutralizing broth (Sigma-Aldrich; St Louis, Mo.). Neutralized cultures were then serially diluted and plated on Sabouraud dextrose agar (two serial 1:10 dilutions, 0.1 mL each) in technical duplicate. Viable conidia were counted and recorded following aerobic incubation for 48 hrs (or as soon as growth was visible) at 25-35° C.
as §2

[5] = system: F. solani (ATCC MYA-3636); assay: In vitro time kill test, filamentous fungi; format: cell-based, Fusarium solani
Description: as §1, §3, §2

[6] = cited from earlier work
[7] = FIG. 1C, without BAK, MOX 5 mg/mL, GAT 5 mg/mL, CHL 5 mg/mL, VAN 14 mg/mL, within 120 min
[8] = FIG. 1B, tenth dilution, within 120 min
[9] = full strength (10,000 u/mL PMB, 40 g/mL BAK, 1 mg/mL TMP), within 120 min

Compound | Efficacy/toxicity ratio, overall rank [1] | Antifungal / fungicidal activity in vitro [1] | Fungicidal activity (words) [3, 7] | Fungicidal activity (words) [3, 8] | Fungicidal activity (words) [3, 9] | also measured
CCCCCCCCCCCCCC(=O)NCCCN(C)C [Aldox, myristamidopropyl dimethylamine] | rank lower than PI | rapid and broad fungicidal activity |  |  |  | Cytotoxicity / toxicity [2]: high cytotoxicity
N=C(NCCCCCCNC(=N)NC(=N)Nc1ccc(Cl)cc1)NC(=N)Nc1ccc(Cl)cc1.O=C(O)[C@H](O)[C@@H](O)[C@H](O)[C@H](O)CO.O=C(O)[C@H](O)[C@@H](O)[C@H](O)[C@H](O)CO [CDG, chlorhexidine digluconate] | rank lower than PI | rapid and broad fungicidal activity; also recorded: effective |  |  |  | Contact time required for the same effect as PI and the novel IL (≥3 log10 reduction) ([3]; FIG. 2B, CDG 0.05%): 5 min; Cytotoxicity / toxicity [2]: high cytotoxicity; also recorded: too toxic; Ratio fungicidal activity/cytotoxicity [4]: lowest ratio
O=C(N[C@H](CO)[C@H](O)c1ccc([N+](=O)[O-])cc1)C(Cl)Cl [CHL, chloramphenicol] |  | no effect; also recorded: ineffective | fungicidal activity was not observed; also recorded: no effect |  |  | 
COc1c(N2CCNC(C)C2)c(F)cc2c(=O)c(C(=O)O)cn(C3CC3)c12 (centres unmarked) [GAT, gatifloxacin] |  | no effect | fungicidal activity was not observed; also recorded: no effect |  |  | 
COc1c(N2C[C@@H]3CCCN[C@@H]3C2)c(F)cc2c(=O)c(C(=O)O)cn(C3CC3)c12 [MOX, moxifloxacin] |  | no effect | no effect |  |  | 
COc1cc(Cc2cnc(N)nc2N)cc(OC)c1OC [TMP, trimethoprim] |  | no effect; also recorded: ineffective |  | fungicidal activity was not observed | no effect | 
CN[C@H](CC(C)C)C(=O)N[C@H]1C(=O)N[C@@H](CC(N)=O)C(=O)N[C@H]2C(=O)N[C@H]3C(=O)N[C@H](C(=O)N[C@H](C(=O)O)c4cc(O)cc(O)c4-c4cc3ccc4O)[C@H](O)c3ccc(c(Cl)c3)Oc3cc2cc(c3O[C@@H]2O[C@H](CO)[C@@H](O)[C@H](O)[C@H]2O[C@H]2C[C@](C)(N)[C@H](O)[C@H](C)O2)Oc2ccc(cc2Cl)[C@H]1O [VAN, vancomycin] |  | no effect; also recorded: ineffective | fungicidal activity was not observed; also recorded: no effect |  |  | 
benzalkonium chloride [BAK] |  | moderate antifungal activity |  | fungicidal activity was not observed | comparable to the commercially prepared Polytrim® | Reduction in viable colonies ([3]; within 60 min): 2 log10; Reduction in viable colonies ([3]; within 120 min): 3 log10; Ratio fungicidal activity/cytotoxicity [3]: lowest ratio; Trypan Blue staining (% stained area per image) compared to control treatment TX-100 (1%) [2]: significantly lower amount of staining; Reduction in viable conidia ([5]; FIG. 2C, within 1 min of contact, Polytrim full strength, PI 0.5%, BAK 40 µg/mL, #3-IL 10 mM): 2 log10
polymyxin B sulfate [PMB] |  | moderate antifungal activity |  | fungicidal activity was not observed | comparable to the commercially prepared Polytrim® | Reduction in viable colonies ([3]; within 60 min): 2 log10; Reduction in viable colonies ([3]; within 120 min): 3 log10
povidone iodine [PI] | good efficacy/toxicity ratio; also recorded: ranks second after the novel IL | rapid and potent fungicidal activity |  |  |  | Ratio fungicidal activity/cytotoxicity [3]: highest ratios; Reduction (kill of C. albicans) ([3]; PI 0.01-0.1%, within 120 min): < 1 log; Reduction (kill of C. albicans) ([3]; PI 0.5-1%, within 1 min): ≥ 3 log; Tolerability on instillation into the eye ([6]; 1% concentration): well tolerated; Tolerability on instillation into the eye ([6]; 5% solution): acutely painful; Tolerability / ocular safety (words) ([6]; clinical or long-term topical ocular use): ocular inflammation from long-term use has occurred; Trypan Blue staining (% stained area per image) compared to control treatment TX-100 (1%) [2]: significantly lower amount of staining; Ratio fungicidal activity/cytotoxicity ([5]; FIG. 3, # of log10 reduction / fold-change in Trypan Blue staining vs PBS (HCLE), 1 min contact, F. solani): highest ratios; also recorded: rank highest for F. solani; Reduction in viable conidia ([4]; FIG. 2D, within 1 min, PI 0.5%, #3-IL 10 mM, CDG 0.05%): 2 log10; Ratio fungicidal activity/cytotoxicity [4]: highest ratios
